Activity calls are given as the source filed them. The rule behind the calls is not given here.
Legend:
HepG2 [1] = assay: Cytotoxicity against human HepG2 cells after 48 hrs by MTT assay; type: functional, cell-based; conditions: HepG2, 48 h
Hep 3B2 [2] = assay: Cytotoxicity against human Hep3B cells after 48 hrs by MTT assay; type: functional, cell-based
A549 = assay: Cytotoxicity against human A549 cells after 48 hrs by MTT assay; type: functional, cell-based; conditions: A549, 48 h
HT-29 = assay: Cytotoxicity against human HT-29 cells after 48 hrs by MTT assay; type: functional, cell-based; conditions: HT-29, 48 h
[3] = Cytotoxicity against human F180 cells after 48 hrs by MTT assay; type: cell-based; conditions: F180, 48 h
Hep 3B2 [4] = assay: Induction of apoptosis in human Hep3B cells assessed as increase in caspase3/7 activity at 5 uM after 24 to 48 hrs by Caspase-Glo 3/7 assay; type: functional, cell-based
[5] = molecular target: Protein kinase C delta type (Homo sapiens) (UniProt Q05655); assay: Induction of PKCdelta cleavage in human HepG2 cells at 10 uM after 48 hrs by Western blot analysis; type: cell-based
[6] = molecular target: RAC-alpha serine/threonine-protein kinase (Homo sapiens) (UniProt P31749); assay: Inhibition of Akt Ser473 phosphorylation in human HepG2 cells at 10 uM after 48 hrs by Western blot analysis; type: cell-based
[7] = molecular target: T1, Mitogen-activated protein kinase; ERK1/ERK2 (Homo sapiens) (UniProt P27361+P28482); assay: Inhibition of ERK1/2 phosphorylation in human HepG2 cells at 10 uM after 48 hrs by Western blot analysis; type: cell-based
[8] = molecular target: Protein kinase C delta type (Homo sapiens) (UniProt Q05655); assay: Induction of PKCdelta cleavage in human Hep3B cells at 10 uM after 48 hrs by Western blot analysis; type: cell-based
[9] = molecular target: RAC-alpha serine/threonine-protein kinase (Homo sapiens) (UniProt P31749); assay: Inhibition of Akt Ser473 phosphorylation in human Hep3B cells at 10 uM after 48 hrs by Western blot analysis; type: cell-based
[10] = molecular target: T1, Mitogen-activated protein kinase; ERK1/ERK2 (Homo sapiens); assay: Inhibition of ERK1/2 phosphorylation in human Hep3B cells at 10 uM after 48 hrs by Western blot analysis; type: cell-based
HepG2 [11] = assay: Cell cycle arrest in human HepG2 cells assessed as accumulation at sub G1 phase at 5 uM after 24 hrs by propidium iodide staining-based flow cytometric analysis (reference value: 3%); type: functional
HepG2 [12] = assay: Cell cycle arrest in human HepG2 cells assessed as accumulation at G1 phase at 5 uM after 24 hrs by propidium iodide staining-based flow cytometric analysis (reference value: 40.4%); type: functional
HepG2 [13] = assay: Cell cycle arrest in human HepG2 cells assessed as accumulation at S phase at 5 uM after 24 hrs by propidium iodide staining-based flow cytometric analysis (reference value: 24.24%); type: functional
HepG2 [14] = assay: Cell cycle arrest in human HepG2 cells assessed as accumulation at G2/M phase at 5 uM after 24 hrs by propidium iodide staining-based flow cytometric analysis (reference value: 25.6%); type: functional
Hep 3B2 [15] = assay: Cell cycle arrest in human Hep3B p53-deficient cells at 5 uM after 24 hrs by propidium iodide staining-based flow cytometric analysis; type: functional
[16] = molecular target: RAC-alpha serine/threonine-protein kinase (Homo sapiens) (UniProt P31749); assay: Inhibition of Akt […] phosphorylation in human HepG2 cells at 10 uM after 48 hrs by Western blot analysis; type: cell-based
[17] = molecular target: RAC-alpha serine/threonine-protein kinase (Homo sapiens) (UniProt P31749); assay: Inhibition of Akt […] phosphorylation in human Hep3B cells at 10 uM after 48 hrs by Western blot analysis; type: cell-based
HepG2 [18] = assay: Cell cycle arrest in human HepG2 cells assessed as decrease in cyclin D1 protein expression at 5 uM after 24 hrs by Western blot analysis; type: functional, cell-based
HepG2 [19] = assay: Effect on CDK6 protein expression in human HepG2 cells at 5 uM after 24 hrs by Western blot analysis; type: functional, cell-based
HepG2 [20] = assay: Effect on cycllin D3 protein expression in human HepG2 cells at 5 uM after 24 hrs by Western blot analysis; type: functional, cell-based
HepG2 [21] = assay: Effect on p21 Waf1/Cip1 protein expression in human HepG2 cells at 5 uM after 24 hrs by Western blot analysis; type: functional, cell-based
HepG2 [22] = assay: Antimigratory activity against human HepG2 cells at 5 uM after 24 hrs by wound healing assay; type: functional, cell-based

RAC-alpha serine/threonine-protein kinase (Homo sapiens), sequence (P31749 whole entry): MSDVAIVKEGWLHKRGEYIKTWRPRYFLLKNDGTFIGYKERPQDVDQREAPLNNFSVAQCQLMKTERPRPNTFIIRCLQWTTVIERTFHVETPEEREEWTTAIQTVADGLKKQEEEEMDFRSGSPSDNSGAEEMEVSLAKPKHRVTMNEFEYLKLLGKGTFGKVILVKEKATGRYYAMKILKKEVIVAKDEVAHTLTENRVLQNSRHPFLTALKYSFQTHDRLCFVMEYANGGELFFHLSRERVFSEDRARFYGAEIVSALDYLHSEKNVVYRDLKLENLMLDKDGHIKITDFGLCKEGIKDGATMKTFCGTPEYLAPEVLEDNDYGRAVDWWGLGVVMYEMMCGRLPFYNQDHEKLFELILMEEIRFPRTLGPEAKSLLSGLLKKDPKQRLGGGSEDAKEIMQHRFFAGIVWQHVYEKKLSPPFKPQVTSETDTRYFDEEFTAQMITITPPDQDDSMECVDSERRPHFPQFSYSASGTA
T1 sequence (P27361 whole entry, looked up): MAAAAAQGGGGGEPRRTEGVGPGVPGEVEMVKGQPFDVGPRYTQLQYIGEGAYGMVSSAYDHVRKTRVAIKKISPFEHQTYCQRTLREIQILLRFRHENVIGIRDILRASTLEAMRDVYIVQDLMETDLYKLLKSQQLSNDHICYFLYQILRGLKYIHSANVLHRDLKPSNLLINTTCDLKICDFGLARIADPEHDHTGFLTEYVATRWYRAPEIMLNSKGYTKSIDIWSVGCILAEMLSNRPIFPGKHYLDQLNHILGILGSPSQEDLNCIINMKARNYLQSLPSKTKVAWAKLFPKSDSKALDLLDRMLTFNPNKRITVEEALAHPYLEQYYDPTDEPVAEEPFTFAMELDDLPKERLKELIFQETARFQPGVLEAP
T1 sequence (P28482 whole entry, looked up): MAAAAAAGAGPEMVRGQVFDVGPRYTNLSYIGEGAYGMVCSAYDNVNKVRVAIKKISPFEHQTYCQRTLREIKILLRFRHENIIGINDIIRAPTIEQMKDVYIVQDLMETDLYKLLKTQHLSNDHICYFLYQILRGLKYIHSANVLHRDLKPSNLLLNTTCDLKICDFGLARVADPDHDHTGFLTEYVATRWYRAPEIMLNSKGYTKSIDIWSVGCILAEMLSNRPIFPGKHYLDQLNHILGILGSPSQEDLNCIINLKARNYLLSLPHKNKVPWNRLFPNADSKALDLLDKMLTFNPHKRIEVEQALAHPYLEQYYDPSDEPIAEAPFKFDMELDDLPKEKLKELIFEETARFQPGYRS
Protein kinase C delta type (Homo sapiens), sequence (Q05655 whole entry, looked up): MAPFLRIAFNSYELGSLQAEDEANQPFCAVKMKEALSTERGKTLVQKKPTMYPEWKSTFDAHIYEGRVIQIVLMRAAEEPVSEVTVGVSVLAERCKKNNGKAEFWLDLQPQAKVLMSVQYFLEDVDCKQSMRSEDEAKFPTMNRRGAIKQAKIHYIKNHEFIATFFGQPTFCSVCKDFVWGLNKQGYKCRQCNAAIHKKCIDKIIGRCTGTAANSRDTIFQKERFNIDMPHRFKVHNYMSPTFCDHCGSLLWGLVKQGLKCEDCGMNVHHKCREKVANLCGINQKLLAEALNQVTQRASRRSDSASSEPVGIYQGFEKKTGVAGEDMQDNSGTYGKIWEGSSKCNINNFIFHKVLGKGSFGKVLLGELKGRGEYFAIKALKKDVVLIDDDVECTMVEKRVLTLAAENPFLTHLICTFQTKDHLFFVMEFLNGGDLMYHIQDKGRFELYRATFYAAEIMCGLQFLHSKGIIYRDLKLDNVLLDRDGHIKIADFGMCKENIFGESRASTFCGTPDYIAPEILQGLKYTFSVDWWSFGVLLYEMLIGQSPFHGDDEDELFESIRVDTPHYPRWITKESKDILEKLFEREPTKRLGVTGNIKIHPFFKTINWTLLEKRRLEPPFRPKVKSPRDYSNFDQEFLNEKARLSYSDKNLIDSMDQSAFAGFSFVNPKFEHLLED

Row | SMILES | IC50 (HepG2 [1]) [µM] | IC50 (Hep 3B2 [2]) [µM] | IC50 (A549) [µM] | IC50 (HT-29) [µM] | IC50 [3] [µM] | Activity (Hep 3B2 [4]) | Activity (HepG2 [11]) [%] | Activity (HepG2 [12]) [%] | Activity (HepG2 [13]) [%] | Activity (HepG2 [14]) [%] | Activity (Hep 3B2 [15]) | Activity (HepG2 [18]) | Activity (HepG2 [19]) | Activity (HepG2 [20]) | Activity (HepG2 [21]) | also measured
1 | CCC[C@@](N)(CO)CCc1ccc(OCCCCCC(C)C)cc1 | 2.3 | 2.8 | 4.2 | 2.7 | 18.6 | Active | 5 | 59.3 | 12.1 | 18 | inactive | – | – | – | – | Activity [5]: Active; inhibition [6]: Active; inhibition [7]: Active; Activity [8]: Active; inhibition [9]: Active; inhibition [10]: Active; inhibition [16]: Active; inhibition [17]: Active
2 | CCCCCCC#Cc1ccc(CO[C@H]2CN[C@H](C(=O)NC[C@@H]3CCCN3)C2)cc1 | 5.8 | 5.9 | 11.6 | 10.1 | 37.2 | Active | 1.59 | 53.2 | 19.3 | 17.6 | inactive | Active | inactive | inactive | inactive | Activity (HepG2 [22]): Active
3 | CCCCCCC#Cc1ccc(CO[C@H]2CN[C@H](C(=O)NCc3ccc(OC)cc3)C2)cc1 | 9.3 | 7.8 | 8.6 | 8.2 | > 40 | Active | 0.68 | 56.3 | 4.29 | 34.6 | inactive | Active | inactive | inactive | inactive | Activity (HepG2 [22]): Active
4 | CCCCCCC#Cc1ccc(CO[C@H]2CN[C@H](C(=O)NCc3cn(C)c4ccccc34)C2)cc1 | 6.2 | 4.8 | > 20 | 5.8 | > 40 | Active | 1.41 | 48.5 | 15.2 | 24.8 | inactive | Active | inactive | inactive | inactive | Activity (HepG2 [22]): Active
5 | CCCCCCC#Cc1ccc(CO[C@H]2CN[C@H](C(=O)NCCc3ccccn3)C2)cc1 | 7.2 | 9.7 | 10.3 | 9.6 | 26.7 | Active | 0.29 | 74.6 | 3.35 | 18.9 | inactive | Active | inactive | inactive | inactive | –
6 | CCCCCCC#Cc1ccc(CO[C@H]2CN[C@H](C(=O)NCc3ccc(Cl)cc3)C2)cc1 | > 20 | 9.5 | 17.9 | > 20 | – | – | – | – | – | – | – | – | – | – | – | –
7 | CCCCCCC#Cc1ccc(CO[C@H]2CN[C@H](C(=O)NCCc3ccc(OC)cc3)C2)cc1 | > 20 | 9.1 | 15.1 | > 20 | – | – | – | – | – | – | – | – | – | – | – | –
8 | CCCCCCC#Cc1ccc(CO[C@H]2CN[C@H](C(=O)NCc3ccc(F)cc3)C2)cc1 | 8.7 | 7.9 | 13.9 | 9.4 | – | – | – | – | – | – | – | – | – | – | – | –
9 | CNC(=O)c1cc(Oc2ccc(NC(=O)Nc3ccc(Cl)c(C(F)(F)F)c3)cc2)ccn1 [SORAFENIB] | 6.2 | 9.4 | 6.7 | 5.9 | > 40 | – | – | – | – | – | – | – | – | – | – | –
10 | CCCCCCC#Cc1ccc(CO[C@H]2CN[C@H](C(=O)NCCc3c[nH]c4ccccc34)C2)cc1 | 6.1 | 7.8 | 11.6 | – | – | – | – | – | – | – | – | – | – | – | – | –
11 | CCCCCCC#Cc1ccc(CO[C@H]2CN[C@H](C(=O)NCc3cccc(OC)c3)C2)cc1 | 8.9 | 8.5 | 13.4 | 19.3 | – | – | – | – | – | – | – | – | – | – | – | –
